Results from patent US5955576A, “Inhibitors of thrombosis” (Corvas International, Inc., priority 1995, dated 1999).
Read-outs that look alike come from different tables or passages of the source. Peptide text beside a SMILES is read from it. * marks the point of attachment. Hydrocinnamoyl = O=C(CCc1ccccc1)*; Tos = Cc1ccc(S(=O)(=O)*)cc1

What was measured:
[1] = biological target: plasmin (Homo sapiens, UniProt P00747); experiment: Plasmin assay, chromogenic substrate S-2251; assay type: biochemical; details: purified human enzyme, 30 minute incubation, HBSA pH 7.5
Protocol: (§1) The buffer used for all assays was HBSA (10 mM HEPES, pH 7.5, 150 mM sodium chloride, 0.1% bovine serum albumin). […] Following a 30 minute incubation at ambient temperature, 50 μL of the substrate at the concentrations specified below, was added to the wells yielding a final total volume of 200 μL. The initial velocity of chromogenic substrate hydrolysis was measured by the change in absorbance at 405 nm using a Thermo Max® Kinetic Microplate Reader over a 5 minute period in which less than 5% of the added substrate was utilized.
Plasmin catalytic activity was determined using the chromogenic substrate, S-2251 [D-valyl-L-leucyl-L-lysine-p-nirtoanilide dihydrochloride], which was obtained from Kabi Diagnostica.

[2] = biological target: T1, factor Xa (Homo sapiens, UniProt P00742); experiment: Factor Xa assay, chromogenic substrate S2765; assay type: biochemical; details: purified human enzyme, 30 minute incubation, HBSA pH 7.5
T1 construct: Human factor Xa was prepared from purified human factor X obtained from Enzyme Research Laboratories; purchased Enzyme Research Laboratories
Protocol: as §1
Factor Xa catalytic activity was determined using the substrate, S2765 (N-α-benzyloxycarbonyl-D-argininyl-L-glycyl-L-arginine-p-nitroanilide dihydrochloride) which was obtained from Kabi Diagnostica. […] Human factor Xa was prepared from purified human factor X obtained from Enzyme Research Laboratories according to the method described by Bock, P. E. et al., Archives of Biochem. Biophys. 273: 375 (1989). The enzyme was diluted into HBSA prior to the assay in which the final concentration was 0.5 nM.

[3] = biological target: thrombin (Homo sapiens, UniProt P00734); experiment: Thrombin assay, chromogenic substrate Pefachrome t-PA; assay type: biochemical; details: purified human enzyme, 30 minute incubation, HBSA pH 7.5
Protocol: The buffer used for all assays was HBSA (10 mM HEPES, pH 7.5, 150 mM sodium chloride, 0.1% bovine serum albumin). […] Following a 30 minute incubation at ambient temperature, 50 μL of the substrate at the concentrations specified below, was added to the wells yielding a final total volume of 200 μL.
Thrombin catalytic activity was determined using the chromogenic substrate Pefachrome t-PA (CH3 SO2 -D-hexahydrotyrosine-glycyl-L-arginine-p-nitroaniline, obtained from Pentapharm Ltd.).

[4] = test system: FeCl3 -induced platelet-dependent arterial thrombosis; assay type: in vivo; details: rat carotid artery
Text: Res., 60: 269-280 (1990). […] Res., 60: 269-280 (1990). […] The animals were then euthanized.

[5] = test system: activated partial thromboplastin time (APTT); experiment: APTT clotting time of blood samples after oral dosing in dogs; assay type: in vivo, dog; details: both doses (10 and 20 mg/kg)
Protocol: (§2) The pharmacodynamic and pharmacokinetic parameters of the compound of Example 34 (and same compound described in Example 91) were evaluated after oral administration in dogs. Adult beagle dogs (9-12 kg) were housed individually in standard cages, and were fed a standard certified commercial diet and tap water ad libitum. Dogs were given an oral dose of either 10 mg/kg or 20 mg/kg test compound, in 55 ml deionized water, via a gastric tube, followed by a water rinse. In a separate protocol, 5 mg/kg of test compound, in 5 ml 0.9% sodium chloride, were administered by fast bolus i.v. injection through an indwelling saphenous vein catheter. The same dogs were used for all doses and both routes of administration, with a one week wash out period between use of the dogs for the different doses and protocols.
Blood samples were collected during the experimental period from the cephalic vein using sodium citrate (0.38% final concentration) as anticoagulant (nine volumes blood to one volume sodium citrate). […]
(§3) The blood levels of test compound were measured by extracting the compound from plasma, separation by HPLC, and post-column derivatization with a fluorogenic functional group. The clotting time of blood was measured using an APTT assay, which measures the prolongation of the activated partial thromboplastin time (APTT) by the test compound. […]

[6] = Pharmacokinetics after oral and i.v. administration in dogs; assay type: in vivo, dog
Protocol: as §2, with “protocols. […]” for “protocols.”
as §3
The systemic bioavailability of the test compound administered by the oral route was calculated by comparing the AUC values (area under curve describing level of compound in blood over time) after i.v. and oral administration. […]

T1 sequence (P00742 235-488 limits assumed): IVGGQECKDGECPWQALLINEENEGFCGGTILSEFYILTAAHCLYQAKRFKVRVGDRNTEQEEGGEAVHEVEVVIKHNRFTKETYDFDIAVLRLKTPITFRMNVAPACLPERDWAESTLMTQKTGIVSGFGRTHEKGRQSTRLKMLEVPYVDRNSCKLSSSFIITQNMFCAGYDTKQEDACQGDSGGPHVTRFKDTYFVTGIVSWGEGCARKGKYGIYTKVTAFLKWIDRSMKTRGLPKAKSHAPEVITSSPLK
T1 sequence (P00742 41-179 partner limits assumed): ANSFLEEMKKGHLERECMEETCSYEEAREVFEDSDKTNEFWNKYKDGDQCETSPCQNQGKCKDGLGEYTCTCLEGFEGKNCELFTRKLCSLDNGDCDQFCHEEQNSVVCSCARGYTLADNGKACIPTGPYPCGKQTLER
Sequence of plasmin (P00747 581-810 limits assumed): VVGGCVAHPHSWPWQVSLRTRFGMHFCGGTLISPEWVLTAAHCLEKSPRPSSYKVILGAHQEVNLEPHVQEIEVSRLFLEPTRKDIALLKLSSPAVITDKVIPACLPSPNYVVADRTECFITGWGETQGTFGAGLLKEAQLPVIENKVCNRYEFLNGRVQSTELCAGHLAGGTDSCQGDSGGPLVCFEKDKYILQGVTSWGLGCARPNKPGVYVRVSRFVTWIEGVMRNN
Sequence of plasmin (P00747 97-580 partner limits assumed): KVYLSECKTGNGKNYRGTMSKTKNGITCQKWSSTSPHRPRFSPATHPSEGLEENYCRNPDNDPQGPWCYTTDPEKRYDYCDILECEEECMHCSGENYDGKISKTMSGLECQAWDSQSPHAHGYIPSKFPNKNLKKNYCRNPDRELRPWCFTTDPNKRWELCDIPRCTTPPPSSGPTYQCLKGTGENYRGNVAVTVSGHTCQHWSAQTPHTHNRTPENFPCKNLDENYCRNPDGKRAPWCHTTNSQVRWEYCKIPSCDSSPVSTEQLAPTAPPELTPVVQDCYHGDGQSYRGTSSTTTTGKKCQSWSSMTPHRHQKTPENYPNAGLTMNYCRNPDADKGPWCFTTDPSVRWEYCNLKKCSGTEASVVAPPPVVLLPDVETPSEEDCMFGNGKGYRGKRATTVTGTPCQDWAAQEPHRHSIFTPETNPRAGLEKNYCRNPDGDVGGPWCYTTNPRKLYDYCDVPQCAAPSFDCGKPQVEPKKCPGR

| Compound | IC50 [1] [nM] | IC50 [2] [nM] | IC50 [3] [nM] | other results |
| --- | --- | --- | --- | --- |
| N=C(N)NCCC[C@@H](C=O)NC(=O)[C@@H]1CCCN1C(=O)[C@H](CC(=O)O)NC(=O)CCC1CCCCC1 [ChxPA-Asp-Pro-Arg-al, N-(3-cyclohexanepropionyl)-L-aspartyl-L-prolyl-L-argininal] | 250 | – | – | – |
| COC(=O)C[C@H](NS(=O)(=O)c1ccc2ccccc2c1)C(=O)N1CCC[C@H]1C(=O)N[C@H](C=O)CCCNC(=N)N [2-NpSO2 -Asp(OCH3)-Pro-Arg-al, N-(2-naphthylsulfonyl)-L-aspartyl-(β-methyl ester)-L-prolyl-L-argininal] | 106 | 4.3 | 0.62 | – |
| N=C(N)NCCC[C@@H](C=O)NC(=O)[C@@H]1CCCN1C(=O)[C@H](CC(=O)O)NC(=O)CCc1ccccc1 [HCA-Asp-Pro-Arg-al, N-(3-phenylpropionyl)-L-aspartyl-L-prolyl-L-argininal] (Hydrocinnamoyl-Asp-Pro-Arg-aldehyde) | 481 | – | – | Incidence of Occlusion ([4]; Group1, 25 μg/kg/min i.v. infusion): 5/6; Incidence of Occlusion ([4]; Group2, 50 μg/kg/min i.v. infusion): 1/5; Incidence of Occlusion ([4]; Group3, 100 μg/kg/min i.v. infusion): 0/5 |
| CCCC(CCC)C(=O)N[C@@H](CC(=O)OC)C(=O)N1CCC[C@H]1C(=O)N[C@H](C=O)CCCNC(=N)N.O=C(O)C(F)(F)F [Example 34, N-(2-propylpentanoyl)-L-aspartyl-beta-(methyl ester)-L-prolyl-L-argininal, trifluoroacetate salt] | – | – | – | duration of elevated APTT [5]: up to two hours; time to significant elevation of APTT [5]: 20 to 30 min; time to maximum blood level of compound [6]: 45 to 60 min |
| CCCC(CCC)C(=O)N[C@@H](CC(=O)OC)C(=O)N1CCC[C@H]1C(=O)N[C@H](C=O)CCCNC(=N)N [2PrPent-Asp(OCH3)-Pro-Arg-al, N-(2-propylpentanoyl)-L-aspartyl-β-(methyl ester)-L-prolyl-L-argininal] | 261 | – | – | – |
| N=C(N)NCCC[C@@H](C=O)NC(=O)[C@@H]1CCCN1C(=O)[C@H](CC(=O)O)NC(=O)CC1CCCCC1 [ChxAc-Asp-Pro-Arg-al, N-(1-cyclohexylacetyl)-L-aspartyl-L-prolyl-L-argininal] | 75 | 15 | 47 | – |
| CC(C)CCC(=O)N[C@@H](CC(=O)O)C(=O)N1CCC[C@H]1C(=O)N[C@H](C=O)CCCNC(=N)N [4MeV-Asp-Pro-Arg-al, N-(4-methylpentanoyl)-L-aspartyl-L-prolyl-L-argininal] | 396 | – | – | – |
| COC(=O)C[C@H](NS(=O)(=O)c1ccc(C)cc1)C(=O)N1CCC[C@H]1C(=O)N[C@H](C=O)CCCNC(=N)N [(4-MePh)SO2 -Asp(OCH3)-Pro-Arg-al, N-(4-methylphenylsulfonyl)-L-aspartyl-(β-methyl ester)-L-prolyl-L-argininal] (Tos-Asp(OMe)-Pro-Arg-aldehyde) | 111 | 9.5 | 1.1 | – |
| CCCC(CCC)C(=O)N[C@@H](CC(=O)O)C(=O)N1CCC[C@H]1C(=O)N[C@H](C=O)CCCNC(=N)N [2PrPent-Asp-Pro-Arg-al, N-(2-propylpentanoyl)-L-aspartyl-L-prolyl-L-argininal] | 254 | – | – | – |
| N-phenylsulfonyl-L-aspartyl-(β-methyl ester)-L-prolyl-L-argininal [BzlSO2 -Asp(OCH3)-Pro-Arg-al] | – | 30 | 5 | – |
| CCCCS(=O)(=O)N[C@@H](CC(=O)OC)C(=O)N1CCC[C@H]1C(=O)N[C@H](C=O)CCCNC(=N)N [n-BuSO2 -Asp(OCH3)-Pro-Arg-al, N-(butylsulfonyl)-L-aspartyl-(β-methyl ester)-L-prolyl-L-argininal] | 250 | 15 | 3.7 | – |
